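Where inhibition never reached the appropriate level, the endpoint shown equals the highest concentration tested. Otherwise, values were interpolated linearly from a five-concentration, 48-hour dose response in 96-well plates. GI50: concentration for 50% inhibition of growth.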 Active and inactive are the calls of the source. Cut-off read from the data, not from the text of the source: active = GI50 up to about 1.1 µM and inactive = higher.
Columns and labels:
Experiment in all cases: DTP human tumour cell line panel, 48 h
[1] = system: A549
[2] = system: CCRF-CEM
[3] = system: UACC-62
[4] = system: 786-0
[5] = system: HCT-15
[6] = system: DMS-273
[7] = system: XF498
[8] = system: NCI-H23
[9] = system: SNB-19
[10] = system: EKVX
[11] = system: NCI-H522
[12] = system: SK-MEL-5
[13] = system: U-251
[14] = system: SF-539
[15] = system: DMS-114
[16] = system: OVCAR-5
[17] = system: KM12
[18] = system: K562
[19] = system: M19-MEL
[20] = system: HOP-62
[21] = system: HOP-18
[22] = system: CAKI-1
[23] = system: OVCAR-3
[24] = system: OVCAR-4
[25] = system: UACC-257
[26] = system: HCT-116
[27] = system: RPMI-8226
[28] = system: M14
[29] = system: A498
[30] = system: RXF 631
[31] = system: HCC 2998
[32] = system: OVCAR-8
[33] = system: TK-10
[34] = system: LXFL 529
[35] = system: LOX IMVI
[36] = system: UO-31
[37] = system: SW-620
[38] = system: KM-20L2
[39] = system: HT-29
[40] = system: MOLT-4
[41] = system: SK-OV-3
[42] = system: SNB-78
[43] = system: SF-295
[44] = system: DLD-1
[45] = system: HOP-92
[46] = system: SF-268
[47] = system: IGROV-1
[48] = system: Malme-3M
[49] = system: SN12C
[50] = system: NCI-H460
[51] = system: ACHN
[52] = system: HL-60
[53] = system: COLO 205
[54] = system: NCI-H226
[55] = system: SK-MEL-2
[56] = system: RXF 393
[57] = system: SNB-75
[58] = system: SR
[59] = system: SK-MEL-28

O=C(CC(=O)c1cccc2ccccc12)C(=O)Nc1ccc(Cl)cc1
GI50 [1]: > 100 µM (inactive) | GI50 [2]: > 100 µM (inactive) | GI50 [3]: > 100 µM (inactive) | GI50 [4]: > 100 µM (inactive) | GI50 [5]: > 100 µM | GI50 [6]: > 100 µM (inactive) | GI50 [7]: > 100 µM (inactive) | GI50 [8]: > 100 µM (inactive) | GI50 [9]: > 100 µM (inactive) | GI50 [10]: > 100 µM (inactive) | GI50 [11]: > 100 µM (inactive) | GI50 [12]: > 100 µM (inactive) | GI50 [13]: > 100 µM (inactive) | GI50 [14]: > 100 µM (inactive) | GI50 [15]: > 100 µM (inactive) | GI50 [16]: > 100 µM (inactive) | GI50 [17]: > 100 µM (inactive) | GI50 [18]: > 100 µM (inactive) | GI50 [19]: > 100 µM (inactive) | GI50 [20]: > 100 µM (inactive) | GI50 [21]: > 100 µM (inactive) | GI50 [22]: > 100 µM (inactive) | GI50 [23]: > 100 µM (inactive) | GI50 [24]: > 100 µM (inactive) | GI50 [25]: > 100 µM (inactive) | GI50 [26]: > 100 µM (inactive) | GI50 [27]: > 100 µM (inactive) | GI50 [28]: > 100 µM (inactive) | GI50 [29]: > 100 µM (inactive) | GI50 [30]: > 100 µM (inactive) | GI50 [31]: > 100 µM (inactive) | GI50 [32]: > 100 µM (inactive) | GI50 [33]: > 100 µM (inactive) | GI50 [34]: > 100 µM (inactive) | GI50 [35]: > 100 µM (inactive) | GI50 [36]: > 100 µM (inactive) | GI50 [37]: > 100 µM (inactive) | GI50 [38]: > 100 µM (inactive) | GI50 [39]: > 100 µM (inactive) | GI50 [40]: > 100 µM (inactive) | GI50 [41]: > 100 µM (inactive) | GI50 [42]: > 100 µM (inactive) | GI50 [43]: > 100 µM (inactive) | GI50 [44]: > 100 µM (inactive) | GI50 [45]: 19.6 µM (inactive) | GI50 [46]: > 100 µM (inactive) | GI50 [47]: > 100 µM (inactive) | GI50 [48]: > 100 µM (inactive) | GI50 [49]: > 100 µM (inactive) | GI50 [50]: > 100 µM (inactive) | GI50 [51]: > 100 µM (inactive) | GI50 [52]: > 100 µM (inactive) | GI50 [53]: > 100 µM (inactive) | GI50 [54]: > 100 µM (inactive)

CC(C)CCCC(C)[C@H]1CCC2[C@@H]3CCC4Nc5c(cnn5-c5ccccc5)C[C@]4(C)C3CC[C@@]21C (stereo not given in full)
GI50 [1]: 52.2 µM (inactive) | GI50 [55]: 23.4 µM (inactive) | GI50 [2]: 7.45 µM (inactive) | GI50 [3]: 8.05 µM (inactive) | GI50 [4]: 15.7 µM (inactive) | GI50 [5]: 23.3 µM | GI50 [6]: 2.72 µM (inactive) | GI50 [7]: 15.3 µM (inactive) | GI50 [8]: 26.1 µM (inactive) | GI50 [9]: 18.2 µM (inactive) | GI50 [10]: 7.52 µM (inactive) | GI50 [11]: 43.1 µM (inactive) | GI50 [12]: 85.1 µM (inactive) | GI50 [13]: 12.5 µM (inactive) | GI50 [14]: 12.9 µM (inactive) | GI50 [15]: 52.8 µM (inactive) | GI50 [16]: 50.1 µM (inactive) | GI50 [17]: 29.6 µM (inactive) | GI50 [18]: 28.1 µM (inactive) | GI50 [19]: 26.1 µM (inactive) | GI50 [20]: 14.3 µM (inactive) | GI50 [21]: > 100 µM (inactive) | GI50 [22]: 5.11 µM (inactive) | GI50 [23]: 32.5 µM (inactive) | GI50 [24]: 25.6 µM (inactive) | GI50 [25]: 44.5 µM (inactive) | GI50 [56]: 2.78 µM (inactive) | GI50 [26]: 51.6 µM (inactive) | GI50 [27]: 3.61 µM (inactive) | GI50 [28]: 39.8 µM (inactive) | GI50 [29]: 89.5 µM (inactive) | GI50 [30]: 13.1 µM (inactive) | GI50 [31]: 15.8 µM (inactive) | GI50 [32]: 61 µM (inactive) | GI50 [33]: > 100 µM (inactive) | GI50 [34]: 24.3 µM (inactive) | GI50 [36]: 15 µM (inactive) | GI50 [37]: 21.5 µM (inactive) | GI50 [38]: 13.1 µM (inactive) | GI50 [39]: 10.6 µM (inactive) | GI50 [40]: 3.32 µM (inactive) | GI50 [41]: 48.5 µM (inactive) | GI50 [42]: 18.7 µM (inactive) | GI50 [43]: 2.84 µM (inactive) | GI50 [44]: > 100 µM (inactive) | GI50 [46]: 85.3 µM (inactive) | GI50 [47]: > 100 µM (inactive) | GI50 [48]: 28.7 µM (inactive) | GI50 [49]: 83 µM (inactive) | GI50 [50]: 14.1 µM (inactive) | GI50 [51]: 29.8 µM (inactive) | GI50 [57]: 2.88 µM (inactive) | GI50 [52]: 4.67 µM (inactive) | GI50 [53]: 8.75 µM (inactive) | GI50 [54]: 17.9 µM (inactive)

CN(C)CC(/C(Cc1ccccc1)=N\NC(=O)C[n+]1ccccc1)c1ccccc1 (stereo not given)
GI50 [1]: > 100 µM (inactive) | GI50 [55]: > 100 µM (inactive) | GI50 [2]: > 100 µM (inactive) | GI50 [3]: > 100 µM (inactive) | GI50 [4]: > 100 µM (inactive) | GI50 [5]: > 100 µM | GI50 [6]: 38.8 µM (inactive) | GI50 [7]: > 100 µM (inactive) | GI50 [8]: > 100 µM (inactive) | GI50 [9]: > 100 µM (inactive) | GI50 [10]: > 100 µM (inactive) | GI50 [11]: 80.9 µM (inactive) | GI50 [12]: > 100 µM (inactive) | GI50 [13]: > 100 µM (inactive) | GI50 [14]: > 100 µM (inactive) | GI50 [15]: > 100 µM (inactive) | GI50 [16]: > 100 µM (inactive) | GI50 [17]: > 100 µM (inactive) | GI50 [18]: > 100 µM (inactive) | GI50 [19]: > 100 µM (inactive) | GI50 [20]: > 100 µM (inactive) | GI50 [21]: > 100 µM (inactive) | GI50 [22]: > 100 µM (inactive) | GI50 [23]: > 100 µM (inactive) | GI50 [24]: > 100 µM (inactive) | GI50 [25]: > 100 µM (inactive) | GI50 [56]: > 100 µM (inactive) | GI50 [26]: > 100 µM (inactive) | GI50 [28]: > 100 µM (inactive) | GI50 [29]: > 100 µM (inactive) | GI50 [30]: > 100 µM (inactive) | GI50 [31]: > 100 µM (inactive) | GI50 [58]: > 100 µM (inactive) | GI50 [32]: 35.1 µM (inactive) | GI50 [33]: > 100 µM (inactive) | GI50 [34]: > 100 µM (inactive) | GI50 [35]: > 10 µM (inactive) | GI50 [36]: > 100 µM (inactive) | GI50 [38]: > 100 µM (inactive) | GI50 [39]: > 100 µM (inactive) | GI50 [40]: > 100 µM (inactive) | GI50 [41]: > 100 µM (inactive) | GI50 [42]: 53.2 µM (inactive) | GI50 [43]: > 100 µM (inactive) | GI50 [59]: > 100 µM (inactive) | GI50 [45]: > 100 µM (inactive) | GI50 [46]: > 100 µM (inactive) | GI50 [47]: > 100 µM (inactive) | GI50 [48]: > 100 µM (inactive) | GI50 [49]: > 100 µM (inactive) | GI50 [50]: > 100 µM (inactive) | GI50 [51]: > 100 µM (inactive) | GI50 [57]: > 100 µM (inactive) | GI50 [52]: > 100 µM (inactive) | GI50 [53]: > 100 µM (inactive) | GI50 [54]: > 100 µM (inactive)

— ChEMBL document CHEMBL1201862, “PubChem BioAssay data set” (2004)
